# Entries after “also recorded” stand apart in the source; their conditions may differ.
# Key:
# [1] = molecular target: T1, PP2A (purified PPP2R1A, PPP2CA and PPP2R5E subunits) (Homo sapiens, UniProt P30153+P67775+Q16537); assay: PP2A Immunoprecipitation Phosphatase Assay with purified subunits; assay type: biochemical
# T1 construct: made in house; host or cells: Hi5 insect cells (baculovirus, pAC8 vectors; virus produced in Sf9)
# Description: The data is presented as mean±s.d. (n=3, biological replicates). *P<0.05 by student's t-test.
# Phosphatase activity of PP2A was measured using the PP2A Immunoprecipitation Phosphatase Assay Kit (Merck Millipore®) (FIG. 21A-FIG. 21B). […] The proteins were subsequently incubated with protein A agarose slurry and 4 μg of anti-PPP2CA antibody (Merck Millipore®, #05-421, clone 1D6) at 4° C. with constant rocking for one hour. Agarose-bound immune complexes were collected, then washed with 700 μl TBS (3 times) and 500 μl Ser/Thr buffer (final wash), before resuspending them in 20 μl Ser/Thr buffer. A phosphopeptide (amino acid sequence: K-R-pT-I-R-R) was added as a substrate for PPP2CA, and samples were incubated at 30° C. in a shaking incubator for 10 minutes. Supernatants (25 μl) were then transferred onto 96-well plate, and released phosphate was measured by adding 100 μl malachite green phosphate detection solution. Absorbance was read by SpectraMax® M5 Multi-Mode Microplate Reader (Molecular Devices LLC) at 650 nm. Phosphate concentrations were calculated from a standard curve generated from serial dilutions of standard phosphate solution (0-2,000 pmol).
# [2] = system: KOPT-K1 cells; assay: Survival of NSG mice xenotransplanted with KOPT-K1 cells; assay type: in vivo, NSG (NOD/Scid/IL2Rγnull) mice; settings: 2.5 mg/kg/day, oral, from day 10
# Text: At day one, 1×10^6 KOPT-K1 cells were intravenously injected into each mouse via its tail veins.
# [3] = system: KOPT-K1 cells; assay: Microtubule and chromatin staining of cytospins; assay type: cell-based, human; settings: 24 hours
# [4] = molecular target: T2, human dopamine receptor D2 (DRD2) (Homo sapiens, UniProt P14416); assay: Dopamine receptor D2 inhibition assay (SRE-luciferase reporter in HEK293T cells); assay type: cell-based; settings: for inhibitory activity on DRD2: 0.5, 1, 2 and 4 μM for three hours with 2 μM dopamine
# T2 construct: expressed in transfected cells; host or cells: HEK293T (pcDNA3 vectors)
# T2 sequence (P14416 whole entry): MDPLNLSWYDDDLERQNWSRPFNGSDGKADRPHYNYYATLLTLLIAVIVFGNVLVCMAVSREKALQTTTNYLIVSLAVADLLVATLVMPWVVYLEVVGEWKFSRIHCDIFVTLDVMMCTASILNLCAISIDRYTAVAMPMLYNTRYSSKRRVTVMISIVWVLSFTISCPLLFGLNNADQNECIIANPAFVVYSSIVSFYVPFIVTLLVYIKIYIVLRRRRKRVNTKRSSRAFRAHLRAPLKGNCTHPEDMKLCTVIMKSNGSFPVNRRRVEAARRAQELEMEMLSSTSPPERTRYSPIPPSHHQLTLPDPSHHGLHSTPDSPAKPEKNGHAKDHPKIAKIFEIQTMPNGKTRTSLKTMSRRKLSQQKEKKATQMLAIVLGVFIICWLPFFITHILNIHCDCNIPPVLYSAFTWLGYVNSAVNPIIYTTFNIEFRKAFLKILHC
# Text: (§1) The human dopamine receptor D2 (DRD2) and modified murine Gq5i cDNAs were inserted into pcDNA3 expression vectors. After verifying the PCR products by DNA sequencing, DRD2, Gq5i and the PathDetect pSRE-Luc Cis-Reporter Plasmid (#219080, Agilent Technologies) were transfected to HEK293T cells. As previously reported, Gq5i enables Gi/o-coupled receptor activity to be detected using a serum response element (SRE)-luciferase reporter gene (See, Conklin et al., Nature 363(6426):274-6 (1993); Al-Fulaij et al., J. Pharmacol. Exp. Ther. 321(1):298-307 (2007)). These cells were starved in FCS-free DMEM medium for six hours before incubating them with 2 μM dopamine hydrochloride (Sigma Aldrich) together with each of the compound at 0, 0.5, 1, 2 and 4 μM for three hours. The reporter activity was measured using Pierce™ Firefly Luciferase Glow Assay Kit (Thermo Fisher Scientific).
# For IC50 calculation, KOPT-K1 cells were treated with each of the compounds at various concentrations for 72 hours, followed by the determination of viable cell numbers with PrestoBlue® cell viability reagent. For the PP2A phosphatase activity assay, KOPT-K1 cells were treated with each of the compounds at 10 μM for 3 hours before phosphatase activity was measured. Dopamine D2 receptor activity was monitored in HEK293T cells coexpressing the dopamine D2 receptor, modified G protein and SRE luciferase reporter. Cells were treated with each of the compound at 10 μM for 3 hours, then lysed for the luciferase reporter assay.
# as §1, with “D2” for “D2 (DRD2)”, “363(6426):274-276” for “363(6426):274-6”, “0.5” for “0, 0.5, 1, 2 and 4”
# [5] = system: T-ALL cells isolated from Tg(rag2:Myc; rag2:EGFP) zebrafish; assay: Zebrafish embryos transplanted with T-ALL cells, GFP-positive leukemic area; assay type: in vivo
# Text: (n=10) N.S.; not significant, **P<0.01 and ****P<0.0001 by two-tailed Welch's t-test.
# [6] = molecular target: T3, PP2A subunits in KOPT-K1 cell lysates (Homo sapiens, UniProt P30153+P67775+Q16537); assay: Cellular thermal shift assay (CETSA), PP2A subunits; assay type: binding; settings: PPZ at 10 μM, one hour
# T3 construct: are endogenously expressed by KOPTK1 cells; endogenous in cells; host or cells: KOPT-K1 T-ALL cells / lysates
# T3 sequence (P30153 whole entry): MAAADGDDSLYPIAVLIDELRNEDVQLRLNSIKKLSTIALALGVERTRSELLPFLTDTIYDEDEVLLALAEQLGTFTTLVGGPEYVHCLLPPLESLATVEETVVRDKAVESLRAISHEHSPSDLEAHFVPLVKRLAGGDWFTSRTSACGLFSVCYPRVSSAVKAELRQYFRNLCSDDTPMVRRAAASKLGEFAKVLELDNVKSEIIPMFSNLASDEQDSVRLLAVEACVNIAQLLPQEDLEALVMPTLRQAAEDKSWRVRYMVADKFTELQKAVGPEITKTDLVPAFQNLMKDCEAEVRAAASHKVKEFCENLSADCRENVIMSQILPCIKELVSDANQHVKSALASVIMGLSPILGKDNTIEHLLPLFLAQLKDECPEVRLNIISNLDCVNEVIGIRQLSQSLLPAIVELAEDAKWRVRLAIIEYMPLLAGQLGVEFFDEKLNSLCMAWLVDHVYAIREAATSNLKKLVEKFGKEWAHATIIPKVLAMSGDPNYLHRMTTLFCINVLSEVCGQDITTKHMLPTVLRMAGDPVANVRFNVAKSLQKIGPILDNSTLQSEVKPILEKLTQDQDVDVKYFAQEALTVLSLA
# T3 sequence (P67775 whole entry): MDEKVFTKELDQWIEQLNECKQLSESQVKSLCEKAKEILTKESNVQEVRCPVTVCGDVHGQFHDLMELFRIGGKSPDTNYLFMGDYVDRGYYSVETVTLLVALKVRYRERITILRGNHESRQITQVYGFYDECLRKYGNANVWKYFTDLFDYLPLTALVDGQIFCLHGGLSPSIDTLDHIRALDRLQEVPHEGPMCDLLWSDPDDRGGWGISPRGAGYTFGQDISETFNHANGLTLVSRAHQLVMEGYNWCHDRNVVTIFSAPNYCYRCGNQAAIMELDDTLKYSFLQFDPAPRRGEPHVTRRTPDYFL
# T3 sequence (Q16537 whole entry): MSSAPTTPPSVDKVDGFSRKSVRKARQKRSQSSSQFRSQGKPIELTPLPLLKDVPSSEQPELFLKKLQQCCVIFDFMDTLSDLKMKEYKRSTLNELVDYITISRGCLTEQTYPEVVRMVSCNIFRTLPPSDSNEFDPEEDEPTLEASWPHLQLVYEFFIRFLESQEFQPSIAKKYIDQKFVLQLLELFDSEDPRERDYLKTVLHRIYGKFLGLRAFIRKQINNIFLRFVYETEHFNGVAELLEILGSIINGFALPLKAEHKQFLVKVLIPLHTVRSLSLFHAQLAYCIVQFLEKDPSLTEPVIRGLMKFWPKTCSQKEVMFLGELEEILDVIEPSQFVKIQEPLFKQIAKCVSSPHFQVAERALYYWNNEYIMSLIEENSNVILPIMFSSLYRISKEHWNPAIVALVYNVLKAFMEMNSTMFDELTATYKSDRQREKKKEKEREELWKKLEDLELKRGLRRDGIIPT
# Text: The cell lysates were then ultra-centrifuged to precipitate the aggregated pool of the protein, followed by quantification of the remaining soluble protein fraction by immunoblotting with antibodies specific to each of the PP2A subunits.
# A similar experiment was set up to examine target engagement specificity of iPAP1 to PP2A subunits in KOPT-K1 cells (FIG. 18G-FIG. 18L). […] A western blot of the KOPT-K1 cell lysates is illustrated in FIG. 19B.
# [7] = Movement disorder in free-swimming zebrafish embryos; assay type: in vivo; settings: five days
# Text: Note that the embryos were not anesthetized. Scale bar: 0.1 mm.
# [8] = system: KOPT-K1 cells; assay: Cell cycle status by PI flow cytometry; assay type: cell-based, human; settings: 24 hours
# Description: Relative DNA content of cells in each of the samples was determined by measuring PI (propidium iodide) staining using flow cytometry. The results are illustrated in FIG. 31A-FIG. 31B.
# Relative DNA content of cells in each of the samples was determined as described above.
# T1 sequence (P30153 whole entry): as the sequence (P30153 whole entry) above
# T1 sequence (P67775 whole entry): as the sequence (P67775 whole entry) above
# T1 sequence (Q16537 whole entry): as the sequence (Q16537 whole entry) above
SMILES,"phosphatase activity of PP2A assembled from purified PPP2R1A, PPP2CA and PPP2R5E ([1]; one hour at room temperature)",overall survival [2],mitotic and microtubule phenotype ([3]; 10 μM and 20 μM),inhibitory activity on DRD2 [4],"activity against T-ALL (GFP signal) ([5]; 5 μM, five days)",thermal stabilization of PP2A subunits [6],swimming behaviour / movement disorder ([7]; 5 μM),cell cycle status ([8]; 10 μM and 20 μM),PP2A activated at lower molar concentrations than PPZ ([1]; purified subunits),"equivalent PP2A activation activity at lower concentrations compared to PPZ ([1]; purified subunits 200 ng each, one hour at room temperature)",mitotic and microtubule phenotype ([3]; 2 μM and 5 μM),inhibitory activities on DRD2 ([4]; 0.5 μM for three hours with 2 μM dopamine),inhibitory activity against DRD2 compared to PPZ ([4]; 10 μM for three hours),DRD2 inhibitory activity as share of the activity of PPZ ([4]; 0.5 to 4 μM),less active in inhibiting DRD2 than PPZ ([4]; multiple molar concentrations),"reduction of the GFP signal more than PPZ ([5]; 2 μM iPAP1 vs 5 μM PPZ, five days)",GFP-positive leukemic area ([5]; serial dosage),swimming behaviour / movement disorder ([7]; 2 μM),cell cycle status ([8]; 1 μM and 2 μM)
"OCCN1CCN(CCCN2c3ccccc3Sc3ccc(Cl)cc32)CC1 [PPZ, perphenazine, reference compound]",Phosphatase activity increased with increasing concentrations of PPZ,did not show any survival advantage over the control,prometaphase arrest at the monopolarity stage,strong inhibitory activity on DRD2 at 0.5 μM; also recorded: strong inhibitory activity of DRD2 activity at concentrations as low as 0.5 μM,some activity against T-ALL with reduced GFP signal,"significantly enhanced stabilization of PPP2R1A, PPP2CA and PPP2R5E",exhibited movement disorders and swam upside down or on their sides,induced significant G2/M phase arrest,–,–,–,–,–,–,–,–,–,–,–
COc1ccc(C(=O)N2c3ccccc3Sc3ccc(Cl)cc32)cc1 [iPAP1],the phosphatase activity of PP2A was increased upon iPAP1 treatment,significantly extended the overall survival period,–,no inhibitory activity of DRD2 signaling at concentrations up to 4 μM,–,protection of the PP2A subunits from thermal degradation similar to PPZ,–,–,~10 fold,~10 times,prometaphase arrest at the monopolarity stage,did not show inhibitory activities on DRD2,~1%,less than 1%,more than 100 fold,at least 5 fold,dose dependent increased T-ALL cell killing,swam upright,induced significant G2/M phase arrest
